Molecules are shown by their SMILES. Read-outs that look alike come from different tables or passages of the source. Some results are limits rather than exact numbers.

We go through 26 compounds from patent US8871767B2, “2-arylimidazo[1,2-B]pyridazine, 2-phenylimidazo[1,2-A]pyridine, and 2-phenylimidazo[1,2-A]pyrazine derivatives” (Hengrui (USA) Ltd., priority 2010, dated 2014).

Test [1] concerns Hedgehog pathway activation (GLi-luciferase reporter) in Shh Light II reporter cells. Briefly: Hedgehog pathway activation on Shh Light II reporter cells measured by luciferase activity. The test is classed as cell-based. The gist of the method: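 Shh Light II reporter cells carrying a hedgehog-responsive GLi-luciferase reporter were stimulated either with 500 nM SAG, a direct Smoothened agonist, or with conditioned media containing human Sonic Hedgehog (hShh). Test compounds were evaluated for blocking this pathway activation, quantified by luciferase activity. Cell viability was monitored in parallel with the Celltiter-Blue® assay.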

Test [2] deals with Hedgehog pathway activation on 10T1/2/Smo#3 cells (C3H10T1/2 cells transfected with human Smoothened receptor). Briefly: Hedgehog pathway activation on 10T1/2/Smo#3 cells measured by ALP activity. The test is classed as cell-based. Summed up:
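Inhibition of alkaline phosphatase induction, read fluorometrically from 4-methylumbelliferyl phosphate conversion, gave IC50 values; CellTiter-Blue tracked viability in parallel. Cells were the human Smo-transfected 10T1/2/Smo#3 pool, stimulated by 10-20% hShh conditioned medium or the Smo agonist SAG (500 nM).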

Where [3] appears, read: Mus musculus, Shh Light II, hShh activation, read-out: Shh (IC50, inhibition of Hedgehog pathway activation).
Where [4] appears, read: Mus musculus, C3H 10T1/2, 10T1/2/Smo#3 cells, measured by ALP activity, read-out: ALP (IC50, inhibition of Hedgehog pathway activation).
[5] abbreviates: Mus musculus, Shh Light II, SAG activation (500 nM SAG), read-out: Shh Light II luciferase activity (SAG activation).
[6] abbreviates: Mus musculus, Shh Light II, hShh activation, read-out: Shh Light II luciferase activity (hShh activation).
The mark [7] stands for this setting: Mus musculus, C3H 10T1/2, 10T1/2/Smo#3 cells, hShh activation, ALP activity, read-out: 10T1/2/Smo#3 ALP activity (hShh Activation).

Regarding `CC(C)(C)C(=O)Nc1cc(-c2cn3nc(N4CCCC(C(F)(F)F)C4)ccc3n2)ccc1C(F)(F)F` (stereo not shown) [Example 356, N-(2-(trifluoromethyl)-5-(6-(3-(trifluoromethyl)piperidin-1-yl)imidazo[1,2-b]pyridazin-2-yl)phenyl)pivalamide], the IC50 in test [1] (setting [3]) is 0.309 µM; in test [2] (setting [4]), 0.514 µM.

As for `CC(C)(C)C(=O)Nc1cc(-c2cn3nc(N4CCC[C@@H](O)C4)ccc3n2)ccc1C(F)(F)F` [Example 357, (R)-N-(5-(6-(3-hydroxypiperidin-1-yl)imidazo[1,2-b]pyridazin-2-yl)-2-(trifluoromethyl)phenyl)pivalamide], the figures for the IC50 in test [1] (setting [3]) and in test [2] (setting [4]) were 0.151 µM and 0.445 µM, respectively.

For `CC(C)(C)C(=O)Nc1cc(-c2cn3nc(N4CCC[C@H](O)C4)ccc3n2)ccc1C(F)(F)F` [Example 358, (S)-N-(5-(6-(3-hydroxypiperidin-1-yl)imidazo[1,2-b]pyridazin-2-yl)-2-(trifluoromethyl)phenyl)pivalamide], the IC50 amounted to 0.225 µM in test [1] (setting [3]) and 0.387 µM in test [2] (setting [4]).

For `CC(C)(C)C(=O)Nc1cc(-c2cn3nc(N(CCO)CCO)ccc3n2)ccc1C(F)(F)F` [Example 359, N-(5-(6-(bis(2-hydroxyethyl)amino)imidazo[1,2-b]pyridazin-2-yl)-2-(trifluoromethyl)phenyl)pivalamide], the IC50 in test [1] (setting [3]) worked out at 1.85 µM; in test [2] (setting [4]) it was 1.91 µM.

Regarding `CNC1CCN(c2ccc3nc(-c4ccc(C)c(NC(=O)C(C)(C)C)c4)cn3n2)C1` (stereo not shown) [Example 360, N-(2-methyl-5-(6-(3-(methylamino)pyrrolidin-1-yl)imidazo[1,2-b]pyridazin-2-yl)phenyl)pivalamide], the IC50 in test [1] (hShh activation, read-out: Shh (IC50, inhibition of Hedgehog pathway activation)) came out at 0.026 µM; in test [2] (10T1/2/Smo#3 cells, measured by ALP activity, read-out: ALP (IC50, inhibition of Hedgehog pathway activation)) it was 0.032 µM.

Turning to `Cc1ccc(-c2cn3nc(N4CCC(N(C)C)C4)ccc3n2)cc1NC(=O)C(C)(C)C` (stereo not shown) [Example 361, N-(5-(6-(3-(dimethylamino)pyrrolidin-1-yl)imidazo[1,2-b]pyridazin-2-yl)-2-methylphenyl)pivalamide], the IC50 in test [1] (setting [3]) was 0.084 µM; in test [2] (setting [4]), 0.11 µM.

Turning to `CC(=O)NC1CCN(c2ccc3nc(-c4ccc(C)c(NC(=O)C(C)(C)C)c4)cn3n2)C1` (stereo not shown) [Example 362, N-(5-(6-(3-acetamidopyrrolidin-1-yl)imidazo[1,2-b]pyridazin-2-yl)-2-methylphenyl)pivalamide], the results for the IC50 in test [1] (setting [3]) and in test [2] (setting [4]) were 0.104 µM and 0.155 µM, respectively.

Turning to `CC(=O)NC1CCN(c2ccc3nc(-c4ccc(C)c(NC(=O)C(C)(C)C)c4)c(C)n3n2)C1` (stereo not shown) [Example 363, N-(5-(6-(3-acetamidopyrrolidin-1-yl)-3-methylimidazo[1,2-b]pyridazin-2-yl)-2-methylphenyl)pivalamide], the IC50 was 0.3 to 3 µM in test [1] (setting [5]); 0.612 µM in test [1] (setting [3]); 0.3 to 3 µM in test [1] (setting [6]); 0.3 to 3 µM in test [2] (setting [7]); 1.24 µM in test [2] (setting [4]).

Turning to `Cc1ccc(-c2cn3nc(-c4cnccc4C(F)(F)F)ccc3n2)cc1NC(=O)C(C)(C)C` [Example 364, N-(2-methyl-5-(6-(4-(trifluoromethyl)pyridin-3-yl)imidazo[1,2-b]pyridazin-2-yl)phenyl)pivalamide], the values for the IC50 in test [1] (setting [3]) and in test [2] (setting [4]) were 0.003 µM and 0.001 µM, respectively.

For the compound `Cc1ccc(-c2cn3nc(-c4ccnc(F)c4)ccc3n2)cc1NC(=O)C(C)(C)C` [Example 365, N-(5-(6-(2-fluoropyridin-4-yl)imidazo[1,2-b]pyridazin-2-yl)-2-methylphenyl)pivalamide], the results for the IC50 in test [1] (setting [3]) and in test [2] (setting [4]) were 0.124 µM and 0.36 µM, respectively.

Turning to `Cc1ccc(-c2cn3nc(-c4ccc(Cl)cn4)ccc3n2)cc1NC(=O)C(C)(C)C` [Example 366, N-(5-(6-(5-chloropyridin-2-yl)imidazo[1,2-b]pyridazin-2-yl)-2-methylphenyl)pivalamide], the values for the IC50 in test [1] (setting [3]) and in test [2] (setting [4]) were 0.227 µM and 1.1 µM, respectively.

With `CCOC1CCN(c2ccc3nc(-c4ccc(C(F)(F)F)c(NC(=O)C(C)(C)C)c4)cn3n2)CC1` [Example 367, N-(5-(6-(4-ethoxypiperidin-1-yl)imidazo[1,2-b]pyridazin-2-yl)-2-(trifluoromethyl)phenyl)pivalamide], the IC50 in test [1] (setting [3]) was 0.312 µM; in test [2] (setting [4]) it was 0.343 µM.

Turning to `COCCNC1CCN(c2ccc3nc(-c4ccc(C(F)(F)F)c(NC(=O)C(C)(C)C)c4)cn3n2)CC1` [Example 368, N-(5-(6-(4-(2-methoxyethylamino)piperidin-1-yl)imidazo[1,2-b]pyridazin-2-yl)-2-(trifluoromethyl)phenyl)pivalamide], the IC50 was 0.118 µM in test [1] (setting [3]) and 0.321 µM in test [2] (setting [4]).

On to `CC(C)(C)C(=O)Nc1cc(-c2cn3nc(N4CCC(N5CCOCC5)CC4)ccc3n2)ccc1C(F)(F)F` [Example 369, N-(5-(6-(4-morpholinopiperidin-1-yl)imidazo[1,2-b]pyridazin-2-yl)-2-(trifluoromethyl)phenyl)pivalamide], for which the IC50 in test [1] (setting [5]) was 0.3 to 3 µM; in test [1] (setting [3]), 0.713 µM; in test [1] (setting [6]), 0.3 to 3 µM; in test [2] (setting [7]), 0.3 to 3 µM; in test [2] (setting [4]), 0.363 µM.

With `CC1CN(C2CCN(c3ccc4nc(-c5ccc(C(F)(F)F)c(NC(=O)C(C)(C)C)c5)cn4n3)CC2)CC(C)O1` (stereo not shown) [Example 370, N-(5-(6-(4-(2,6-dimethylmorpholino)piperidin-1-yl)imidazo[1,2-b]pyridazin-2-yl)-2-(trifluoromethyl)phenyl)pivalamide], the IC50 in test [1] (setting [3]) came out at 0.321 µM; in test [2] (setting [4]), 0.333 µM.

On to `CC(C)(C)C(=O)Nc1cc(-c2cn3nc(N4CCC5(CC4)OCCO5)ccc3n2)ccc1C(F)(F)F` [Example 371, N-(5-(6-(1,4-dioxa-8-azaspiro[4.5]decan-8-yl)imidazo[1,2-b]pyridazin-2-yl)-2-(trifluoromethyl)phenyl)pivalamide], for which the IC50 in test [1] (setting [3]) amounted to 0.138 µM; in test [2] (setting [4]), 0.296 µM.

Consider `CC(C)(C)C(=O)Nc1cc(-c2cn3nc(-c4cncnc4)ccc3n2)ccc1C(F)(F)F` [Example 372, N-(5-(6-(pyrimidin-5-yl)imidazo[1,2-b]pyridazin-2-yl)-2-(trifluoromethyl)phenyl)pivalamide], for which the IC50 in test [1] (setting [3]) was found to be 0.827 µM; in test [2] (setting [4]) it was 0.633 µM.

For `COc1ncc(-c2ccc3nc(-c4ccc(C(F)(F)F)c(NC(=O)C(C)(C)C)c4)cn3n2)cn1` [Example 373, N-(5-(6-(2-methoxypyrimidin-5-yl)imidazo[1,2-b]pyridazin-2-yl)-2-(trifluoromethyl)phenyl)pivalamide], the IC50 is 0.929 µM in test [1] (setting [3]) and 0.533 µM in test [2] (setting [4]).

Regarding `CC(C)OCCOc1ccc2nc(-c3ccc(C(F)(F)F)c(NC(=O)C(C)(C)C)c3)cn2n1` [Example 374, N-(5-(6-(2-isopropoxyethoxy)imidazo[1,2-b]pyridazin-2-yl)-2-(trifluoromethyl)phenyl)pivalamide], the IC50 turned out to be 0.634 µM in test [1] (setting [3]) and 1.28 µM in test [2] (setting [4]).

Consider `CC(C)(C)C(=O)Nc1cc(-c2cn3nc(OC4CCC(O)CC4)ccc3n2)ccc1C(F)(F)F` (stereo not shown) [Example 375, N-(5-(6-(4-hydroxycyclohexyloxy)imidazo[1,2-b]pyridazin-2-yl)-2-(trifluoromethyl)phenyl)pivalamide], for which the IC50 in test [1] (setting [3]) amounted to 0.316 µM; in test [2] (setting [4]), 0.372 µM.

`CC(O)COc1ccc2nc(-c3ccc(C(F)(F)F)c(NC(=O)C(C)(C)C)c3)cn2n1` (stereo not shown) [Example 376, N-(5-(6-(2-hydroxypropoxy)imidazo[1,2-b]pyridazin-2-yl)-2-(trifluoromethyl)phenyl)pivalamide]: the IC50 in test [1] (setting [3]) worked out at 0.616 µM; in test [2] (setting [4]), 0.874 µM.

`CC(C)(C)C(=O)Nc1cc(-c2cn3nc(OCCO)ccc3n2)ccc1C(F)(F)F` [Example 377, N-(5-(6-(2-hydroxyethoxy)imidazo[1,2-b]pyridazin-2-yl)-2-(trifluoromethyl)phenyl)pivalamide]: the figures for the IC50 in test [1] (setting [3]) and in test [2] (setting [4]) were 0.657 µM and 0.704 µM, respectively.

For `CN(C)c1ncc(-c2ccc3nc(-c4ccc(C(F)(F)F)c(NC(=O)C(C)(C)C)c4)cn3n2)cn1` [Example 378, N-(5-(6-(2-(dimethylamino)pyrimidin-5-yl)imidazo[1,2-b]pyridazin-2-yl)-2-(trifluoromethyl)phenyl)pivalamide], the IC50 in test [1] (setting [3]) is 1.54 µM; in test [2] (setting [4]), 0.963 µM.

For the compound `Cn1cccc1-c1ccc2nc(-c3ccc(C(F)(F)F)c(NC(=O)C(C)(C)C)c3)cn2n1` [Example 379, N-(5-(6-(1-methyl-1H-pyrrol-2-yl)imidazo[1,2-b]pyridazin-2-yl)-2-(trifluoromethyl)phenyl)pivalamide], the IC50 is greater than 10 µM in test [1] (setting [3]) and 1.86 µM in test [2] (setting [4]).

With `COCCN(CCOC)c1ccc2nc(-c3ccc(C(F)(F)F)c(NC(=O)C(C)(C)C)c3)cn2n1` [Example 380, N-(5-(6-(bis(2-methoxyethyl)amino)imidazo[1,2-b]pyridazin-2-yl)-2-(trifluoromethyl)phenyl)pivalamide], the IC50 was determined as 0.273 µM in test [1] (setting [3]) and 0.383 µM in test [2] (setting [4]).

As to `Cc1cc(-c2ccc3nc(-c4ccc(C(F)(F)F)c(NC(=O)C(C)(C)C)c4)cn3n2)ccn1` [Example 381, N-(5-(6-(2-methylpyridin-4-yl)imidazo[1,2-b]pyridazin-2-yl)-2-(trifluoromethyl)phenyl)pivalamide], the IC50 in test [1] (setting [3]) was 1.25 µM; in test [2] (setting [4]), 0.58 µM.
